“And” between values parts separate entries of the source, which are not always exact repeats. Identical values can stand only once.
Test: mn = molality of the nth substance listed, in mol/kg
Details: 298.15 K, 100 kPa, Liquid, Vibrating tube method

[O]=[Tc](=[O])(=[O])[OH] [pertechnetic acid] + O
Details | mass density
m1 = 0.000983 | 996.83 kg/m3
m1 = 0.00102 | 996.91 kg/m3
m1 = 0.00113 | 996.91 kg/m3 and 996.92 kg/m3
m1 = 0.00124 | 996.91 kg/m3
m1 = 0.00159 | 996.95 kg/m3
m1 = 0.1 | 1008.7 kg/m3
m1 = 0.103 | 1008.77 kg/m3
m1 = 0.114 | 1009.95 kg/m3
m1 = 0.115 | 1010.3 kg/m3
m1 = 0.127 | 1011.76 kg/m3
m1 = 0.163 | 1016.23 kg/m3
m1 = 0.888 | 1097.53 kg/m3
m1 = 0.98 | 1107.47 kg/m3
m1 = 1.007 | 1117.47 kg/m3
m1 = 1.096 | 1127.7 kg/m3
m1 = 1.182 | 1137.34 kg/m3
m1 = 1.265 | 1146.5 kg/m3
m1 = 1.347 | 1155.88 kg/m3
m1 = 1.398 | 1164.11 kg/m3
m1 = 1.535 | 1178.55 kg/m3
m1 = 1.696 | 1195.28 kg/m3
m1 = 2.034 | 1225.06 kg/m3
m1 = 2.106 | 1235.3 kg/m3
m1 = 2.211 | 1243.09 kg/m3
m1 = 2.45 | 1263.95 kg/m3
m1 = 2.555 | 1272.74 kg/m3
m1 = 2.667 | 1283.23 kg/m3
m1 = 2.783 | 1293.03 kg/m3
m1 = 2.908 | 1303.34 kg/m3
m1 = 3.042 | 1314.68 kg/m3
m1 = 3.33 | 1335.81 kg/m3
m1 = 3.49 | 1348.06 kg/m3
m1 = 3.693 | 1374.94 kg/m3
m1 = 3.884 | 1389.83 kg/m3
m1 = 4.038 | 1399.11 kg/m3
m1 = 4.46 | 1434.87 kg/m3
m1 = 4.661 | 1446.75 kg/m3
m1 = 4.851 | 1460.83 kg/m3
m1 = 5.049 | 1475.34 kg/m3
m1 = 5.257 | 1490.81 kg/m3
m1 = 5.485 | 1507.23 kg/m3
m1 = 5.722 | 1523.34 kg/m3
m1 = 6.254 | 1556.61 kg/m3
m1 = 6.537 | 1574.08 kg/m3
m1 = 6.849 | 1593.38 kg/m3
m1 = 7.187 | 1612.75 kg/m3
m1 = 7.54 | 1634.13 kg/m3
m1 = 7.918 | 1657.06 kg/m3
m1 = 8.323 | 1679.31 kg/m3

Source: the NIST ThermoML archive (doi:10.1016/j.jct.2015.07.006)
